Test results taken from patent publication US6096874A (Board of Regents, the University of Texas System, priority 1995, dated 2000).
Like-named read-outs stand apart in the source and are kept apart here.

What was measured:
[1] = system: uterus and ovaries; experiment: PET imaging of pig uterus and ovaries and blood clearance in pigs; assay type: in vivo; conditions: for Uterus/ovary uptake in PET image (in words): 1 h postinjection
Description: PET imaging was performed on four domestic female pigs (30 lb) with a positron camera (Positron Corporation, Houston, Tex). Each pig was supine in the scanner so that the detector rings would span the entire pelvic region. Prior to scanning, the position of the uterus and ovaries was determined by hysterosalpingography. Fifteen milliliters of radiopaque (Renografin 76 Squibb Diagnostic, New Brunswick, N.J.) was injected through the vagina into the uterus via a 5 Fr catheter with the balloon inflated by 1 ml of air. Radiographs of the pelvis in the anterior-posterior projection were taken. The location of the uterus was marked permanently on the skin of each pig for positioning in the PET camera.
A 20 min attenuation scan was performed with a 4 mCi ^68 Ge-ring source prior to tracer injection. After each pig received 10 mCi of [^18 F]FTX, […] consecutive 10 min scans were acquired. There was a 5 min wait between scans for data transfer. […] In order to examine the blood clearance profile of [^18 F]FTX, venous blood samples (0.5 ml) were collected every minute for the first ten minutes, followed by every ten minutes up to two hours. Serial transaxial images of the pelvic region were performed in order to view the uterus. The tomograph has a field-of-view of t42 cm on transverse and 12 cm on coronal planes. The axial resolution on the reconstructed plane is 1.2 cm.

[2] = in vivo; set-up: species or system rat; conditions: for tissue uptake at 0.5 h / tissue uptake at 2 h / tissue uptake at 4 h / Tissue uptake findings (in words) / tissue uptake at 1 h / tissue uptake at 3 h / tissue uptake at 6 h / tissue uptake at 24 h: rat; for tissue uptake at 0.5 h / tissue uptake at 2 h / tissue uptake at 4 h / tissue uptake at 1 h / tissue uptake at 3 h / tissue uptake at 6 h / tissue uptake at 24 h: iv; for tissue uptake at 0.5 h: 30 min; for Tissue uptake findings (in words): in vivo
Description: In animal tissue distribution studies, each rate was given 8.9 μCi (0.15 ml) tracer intravenously. The tumor-bearing rats were killed at 1, 3, 6 and 24 h. […] The amount of DES given should occupy tumor estrogen receptor sites. The methods for inducing tumors in rats was as described by those of skill in the art (radiology). […]
Female Fisher 344 rats (250-275 g) (Harlan, Inc., Indianapolis, Ind.) were inoculated with mammary tumor cells using the 13762 tumor cell line (s.c. 10^5 cells/rat). After 14 days, a tumor size of 1-2 cm was observed. For ^131 I-ITX studies, five groups of rats (N=3/group) were anesthetized with ketamine (10-15 mg/rat). The trans ^131 I-ITX was given to four of the five groups (8.9 μCi/rat, i.v.) and biodistribution was studied at 1, 3, 6 and 24 h intervals. In blocking studies, the fifth group of rats was given diethylstilbestrol (DES) (1.2 mg/rat) for 1 h, followed by 8.9 μCi of ^131 I-ITX; biodistribution was studied 6 h later. The tissues were collected at different time intervals. The tissues were weighted and counted for radioactivity. The percent of injected dose per gram of tissue weight was calculated. […]

[3] = system: rabbit uterus; experiment: Gamma scintigraphic imaging of estrogen receptor sites in rabbits; assay type: in vivo; conditions: for Rabbit uterus uptake after DES block (in words): DES 15 mg iv pretreatment
Description: Gamma scintigraphic images were obtained from GE Starport System (GE Company, Milwaukee, Wis.). […] Each pixel was 14 bits deep. Six New Zealand female rabbits (3-4 Kg B.W.) were administered 300 μCi of [^131 I]iodotamoxifen (iv) and multiple images at 2, 24 and 48 hours were accomplished. To ascertain the radioactivity uptake in uterus is via an ER-mediated process, the rabbits were administered with diethylstilbestrol (15 mg,iv) 1 hour prior to receiving [^131 I]ITX and the images were obtained at 2, 24 and 48 hours.

[4] = 2 h, pretreated with DES (blocking)
[5] = kidney, read-out: Kidney uptake
[6] = muscle, read-out: Muscle uptake
[7] = uterus, read-out: Uterus uptake
[8] = 6 h, pretreated with DES (blocking)

CCN(CC)CCOc1ccc(/C(=C(/CCC[18F])c2ccccc2)c2ccccc2)cc1 [[^18 F]FTX, (trans)[^18 F]Fluoromethyl-N,N-diethyltamoxifen]
Time to clearance from the blood stream ([1]; 10 mCi i.v., pig): ≤ 10 min | Uterus/ovary uptake in PET image (in words) ([1]; 10 mCi i.v.): increased uptake could be blocked after pretreatment with DES | Uterus/ovary uptake in PET image (in words) ([1]; 10 mCi i.v., listed as 18 F-tamoxifen): can be blocked with DES | Uterus/ovary uptake in PET image (in words) ([1]; 10 mCi i.v., listed as 18 F-tracer): increased uptake could be blocked after pretreatment with diethylstilbestrol | Target organ binding (in words) ([1]; 30 minutes to 2 hours post-administration, pig): constant | Blood uptake [2, 4]: 0.102 % injected dose/gram tissue | Bone uptake [2, 4]: 0.278 % injected dose/gram tissue | Kidney uptake [2, 4]: 1.241 % injected dose/gram tissue | Liver uptake [2, 4]: 7.242 % injected dose/gram tissue | Lung uptake [2, 4]: 2.084 % injected dose/gram tissue | Muscle uptake [2, 4]: 0.131 % injected dose/gram tissue | Uterus uptake [2, 4]: 0.435 % injected dose/gram tissue | Tumor uptake ([2]; 2 h, pretreated with DES (blocking), 120 min): 0.24±0.017 % injected dose/gram tissue | Tumor uptake ([2]; 2 h, pretreated with DES (blocking), listed as [^18 F]FLUOROMETHYL-N,N-DIETHYL-TAMOXIFEN, 120 min): 0.244 % injected dose/gram tissue | Tumor uptake ([2]; 2 h, 120 min): 0.405 % injected dose/gram tissue | tissue uptake at 0.5 h ([2]; blood, read-out: Blood uptake): 0.169 %ID/g | tissue uptake at 2 h ([2]; blood, 2 h, read-out: Blood uptake): 0.114 %ID/g | tissue uptake at 4 h ([2]; blood, read-out: Blood uptake): 0.069 %ID/g | tissue uptake at 0.5 h ([2]; bone, read-out: Bone uptake): 0.264 %ID/g | tissue uptake at 2 h ([2]; bone, 2 h, read-out: Bone uptake): 0.482 %ID/g | tissue uptake at 4 h ([2]; bone, read-out: Bone uptake): 0.258 %ID/g | Tissue uptake findings (in words) [2]: increased uptake in the tumor and uterus can be blocked by pretreatment with diethylstilbestrol (DES) | tissue uptake at 0.5 h [2, 5]: 1.71 %ID/g | tissue uptake at 2 h ([2]; kidney, 2 h, read-out: Kidney uptake): 2.08 %ID/g | tissue uptake at 4 h [2, 5]: 0.652 %ID/g | tissue uptake at 0.5 h ([2]; liver, read-out: Liver uptake): 6.36 %ID/g | tissue uptake at 2 h ([2]; liver, 2 h, read-out: Liver uptake): 6.93 %ID/g | tissue uptake at 4 h ([2]; liver, read-out: Liver uptake): 6.5 %ID/g | tissue uptake at 0.5 h ([2]; lung, read-out: Lung uptake): 3.82 %ID/g | tissue uptake at 2 h ([2]; lung, 2 h, read-out: Lung uptake): 3.5 %ID/g | tissue uptake at 4 h ([2]; lung, read-out: Lung uptake): 1.31 %ID/g | tissue uptake at 0.5 h [2, 6]: 0.183 %ID/g | tissue uptake at 2 h ([2]; muscle, 2 h, read-out: Muscle uptake): 0.234 %ID/g | tissue uptake at 4 h [2, 6]: 0.093 %ID/g | tissue uptake at 0.5 h ([2]; tumor, read-out: Tumor uptake): 0.256 %ID/g | tissue uptake at 2 h ([2]; tumor, 2 h, read-out: Tumor uptake): 0.41 ± 0.07 %ID/g | tissue uptake at 4 h ([2]; tumor, read-out: Tumor uptake): 0.284 %ID/g | tissue uptake at 0.5 h [2, 7]: 0.536 %ID/g | tissue uptake at 4 h [2, 7]: 0.364 %ID/g

CCN(CC)CCOc1ccc(/C(=C(/CCC[131I])c2ccccc2)c2ccccc2)cc1 [^131 I-IODOTAMOXIFEN]
uterus:muscle uptake ratio ([3]; 24 h postinjection): 4.6 | Rabbit uterus uptake after DES block (in words) ([3]; listed as 131 l-iodotamoxifen): the uterus showed decreased uptake | Rabbit uterus uptake after DES block (in words) ([3]; listed as [^131 I]ITX): rabbit uterus uptake can be blocked by pretreatment with DES | Rabbit uterus uptake after DES block (in words) ([3]; listed as [^131 ]ITX): increased uptake can be blocked by pretreatment of the rabbit with DES | Tumor uptake ([2]; 1 h, 60 min): 0.181 % injected dose/gram tissue | Tumor uptake ([2]; 3 h, 180 min): 0.229 % injected dose/gram tissue | Blood uptake [2, 8]: 0.072 % injected dose/gram tissue | Kidney uptake [2, 8]: 1.296 % injected dose/gram tissue | Liver uptake [2, 8]: 4.682 % injected dose/gram tissue | Lung uptake [2, 8]: 2.173 % injected dose/gram tissue | Muscle uptake [2, 8]: 0.172 % injected dose/gram tissue | Spleen uptake [2, 8]: 2.366 % injected dose/gram tissue | Thyroid uptake [2, 8]: 0.640 % injected dose/gram tissue | Uterus uptake [2, 8]: 0.325 % injected dose/gram tissue | Tumor uptake ([2]; 6 h, pretreated with DES (blocking), 360 min): 0.217 % injected dose/gram tissue | Tumor uptake ([2]; 6 h, pretreated with DES (blocking), listed as 131 I-TX, 360 min): 0.22±0.059 % injected dose/gram tissue | Tumor uptake ([2]; 6 h, pretreated with DES (blocking), listed as [^131 I]ITX, 360 min): 0.22±0.044 % injected dose/gram tissue | Tumor uptake ([2]; 6 h, 360 min): 0.261 % injected dose/gram tissue | Tumor uptake ([2]; 24 h, 1440 min): 0.267 % injected dose/gram tissue | Tumor uptake ([2]; 24 h, listed as 131 I-ITX, 1440 min): 0.267±0.0160 % injected dose/gram tissue | tissue uptake at 1 h ([2]; blood, 1 h, read-out: Blood uptake): 0.158 %ID/g | tissue uptake at 3 h ([2]; blood, 3 h, read-out: Blood uptake): 0.121 %ID/g | tissue uptake at 6 h ([2]; blood, 6 h, read-out: Blood uptake): 0.124 %ID/g | tissue uptake at 24 h ([2]; blood, 24 h, read-out: Blood uptake): 0.001 %ID/g | Tissue uptake findings (in words) [2]: both tumor and uterus uptake can be blocked | Tissue uptake findings (in words) ([2]; listed as 131 I-ITX): both tumor and uterus value were decreased in 6 h blocking group | tissue uptake at 1 h ([2]; kidney, 1 h, read-out: Kidney uptake): 1.88 %ID/g | tissue uptake at 3 h ([2]; kidney, 3 h, read-out: Kidney uptake): 2.37 %ID/g | tissue uptake at 6 h ([2]; kidney, 6 h, read-out: Kidney uptake): 1.36 %ID/g | tissue uptake at 24 h ([2]; kidney, 24 h, read-out: Kidney uptake): 0.381 %ID/g | tissue uptake at 1 h ([2]; liver, 1 h, read-out: Liver uptake): 5.6 %ID/g | tissue uptake at 3 h ([2]; liver, 3 h, read-out: Liver uptake): 6 %ID/g | tissue uptake at 6 h ([2]; liver, 6 h, read-out: Liver uptake): 4.63 %ID/g | tissue uptake at 24 h ([2]; liver, 24 h, read-out: Liver uptake): 2.47 %ID/g | tissue uptake at 1 h ([2]; lung, 1 h, read-out: Lung uptake): 3.95 %ID/g | tissue uptake at 3 h ([2]; lung, 3 h, read-out: Lung uptake): 3.71 %ID/g | tissue uptake at 6 h ([2]; lung, 6 h, read-out: Lung uptake): 2.84 %ID/g | tissue uptake at 24 h ([2]; lung, 24 h, read-out: Lung uptake): 0.512 %ID/g | tissue uptake at 1 h ([2]; muscle, 1 h, read-out: Muscle uptake): 0.201 %ID/g | tissue uptake at 3 h ([2]; muscle, 3 h, read-out: Muscle uptake): 0.253 %ID/g | tissue uptake at 6 h ([2]; muscle, 6 h, read-out: Muscle uptake): 0.204 %ID/g | tissue uptake at 24 h ([2]; muscle, 24 h, read-out: Muscle uptake): 0.005 %ID/g | tissue uptake at 1 h ([2]; spleen, 1 h, read-out: Spleen uptake): 3.38 %ID/g | tissue uptake at 3 h ([2]; spleen, 3 h, read-out: Spleen uptake): 3.31 %ID/g | tissue uptake at 6 h ([2]; spleen, 6 h, read-out: Spleen uptake): 2.33 %ID/g | tissue uptake at 24 h ([2]; spleen, 24 h, read-out: Spleen uptake): 0.688 %ID/g | tissue uptake at 1 h ([2]; thyroid, 1 h, read-out: Thyroid uptake): 0.393 %ID/g | tissue uptake at 3 h ([2]; thyroid, 3 h, read-out: Thyroid uptake): 0.748 %ID/g | tissue uptake at 6 h ([2]; thyroid, 6 h, read-out: Thyroid uptake): 0.776 %ID/g | tissue uptake at 24 h ([2]; thyroid, 24 h, read-out: Thyroid uptake): 0.493 %ID/g | tissue uptake at 1 h ([2]; tumor, 1 h, read-out: Tumor uptake): 0.18 ± 0.062 %ID/g | tissue uptake at 3 h ([2]; tumor, 3 h, read-out: Tumor uptake): 0.23 ± 0.152 %ID/g | tissue uptake at 6 h ([2]; tumor, 6 h, read-out: Tumor uptake): 0.26 ± 0.166 %ID/g | tissue uptake at 24 h ([2]; tumor, 24 h, read-out: Tumor uptake): 0.27 ± 0.016 %ID/g | tissue uptake at 1 h ([2]; uterus, 1 h, read-out: Uterus uptake): 0.414 %ID/g | tissue uptake at 3 h ([2]; uterus, 3 h, read-out: Uterus uptake): 0.546 %ID/g | tissue uptake at 6 h ([2]; uterus, 6 h, read-out: Uterus uptake): 0.408 %ID/g | tissue uptake at 24 h ([2]; uterus, 24 h, read-out: Uterus uptake): 0.151 %ID/g
